Tests used:
EAE [1] = assay: Prevention of EAE by immunization with TCR peptide (Example VI); assay type: in vivo, Lewis rats; conditions: for protection from EAE: Lewis rats
Description: EAE is a well-recognized rat model of the human autoimmune disease, multiple sclerosis. […] In this model, the disease is induced by injecting the subject rat with an encephalitogenic form of myelin basic protein, such as, for example, guinea pig basic protein (GPBP) or a synthetic peptide that corresponds to residues 72-89 of GPBP (GPBP(72-89)). Injection of either of these peptides in complete Freund's adjuvant (CFA) induces encephalitogenic T cell clones that utilize preferentially the rat homologs of mouse TCR Vα2 and Vβ8 genes (Chou, Y. K., et al., J. Neurosci. Res. 22:181-187 (1989); Burns, F. R., et al., J. Exp. Med. 169:27-39 (1989)).
^1 EAE was induced by SC challenge with 50 μg GPBP + 400 μg
^2 Rats were injected SC with either: (1) 100 μg of the TCR peptid
^3 Values represent the mean of the maximum severity of EAE. 0, no

LNC and T cell lines = assay: T cell proliferation after treatment of EAE with TCR Vβ8 39-59/CFA (Table 27); assay type: cell-based, rats
Description: Lymphocyte Proliferation: Activation of T cells was measured by ^3 H-Tdy uptake. 500,000 lymph node cells or 20,000 line cells in the presence of 1 million irradiated thymic accessory cells were incubated with culture medium and antigens in microtiter wells for 18 hours prior to the addition of 0.5 μBq labeled thymidine. The cell cultures were harvested onto glass fiber filters and counted by liquid scintillation techniques. Mean CPM were calculated from triplicate cultures. Standard deviations (SD) from replicate cultures varied <10% from the mean value.
^a Treated rats were injected s.q. with 50 μg TCR Vβ839-59
^b LW cells collected after the untreated group recovered from EAE

EAE [2] = assay: Prevention, suppression and treatment of EAE with TCR Vβ8-39-59 peptide (Table 25); assay type: in vivo, Lewis rats; conditions: peptide/CFA s.q.
[3] = test system: lymph node cells and Vβ8-44-54 selected T cell line
EAE [4] = assay: Prevention and suppression of EAE by immunization with TCR Vβ8(39-59) (Table 17); assay type: in vivo, Lewis rats; conditions: 100 μg peptide/CFA day 0, Gp-S49S (100 μg) challenge day 0
TCR Vβ8(39-59) peptide = assay type: binding, rat
T cell immunity = T cell immunity / DH response induced by peptide; assay type: in vivo; conditions: Lewis rats
Description: Immunogenicity of peptides useful in the present invention can be screened by well-known methods, such as use of a DH response in an animal. In such a response, an animal is "sensitized" by injection of an appropriate dose of an antigen, typically subcutaneously (SC), frequently with an adjuvant, such as complete Freund's adjuvant (CFA). Generally about 5-15 days later, the response is "elicited" by challenging the animal, typically intradermally (ID), with an appropriate dose of the antigen, typically in saline or other buffer. The response is assessed 24-48 hours later. […]
The desired peptides, with sequences determined as described above, are prepared using standard synthesis techniques including solution and solid phase sequential amino acid conjugation and recombinant production in prokaryotic or eukaryotic hosts. Verification that the peptide prepared is immunogenic can easily be determined using a DH reaction in an animal (e.g., mouse or rat), as described above. […] The ear swelling response, measured 24 or 48 hours after challenge, serves as a simple and reliable measure of the presence of T cell-mediated immunity to the peptide.

[5] = test system: T cell lines derived from rats protected from EAE; assay: Proliferation of LN cells and T cell lines from rats protected by TCR Vβ8 peptide (Table 12); assay type: cell-based, rat
EAE [6] = assay: Clinical EAE in rats treated with TCR Vβ8(39-59) before or after onset (Table 22); assay type: in vivo; conditions: Exp. 2; control TCR peptide, day 13
Description: The ability of the TCR Vβ8(39-59) given either SC (in adjuvant) or ID (in saline) to disrupt the disease process when given at various times after induction of EAE with GPBP was tested (Table 22). […] In both cases, with both routes of injection of the peptide, there was a significant reduction in the duration of the disease, though not in the severity or time of onset. The efficacy of the peptide given in saline via the ID route is of particular importance to human therapy, as it is preferred to SC injection in adjuvant.
In Experiment 2, the time of ID administration of the TCR peptide was varied, as was the dose. […] A delay in onset of the disease was also observed. Furthermore, the percentage of animals showing signs of the disease decreased. A larger dose of the peptide (200 μg) appeared less efficacious than the lower dose, possibly due to a short-term overload of the peptide which could have comprised the immune response generated against the TCR. Treatment with a similarly sized peptide corresponding to an irrelevant TCR had no effect on onset, severity or incidence of EAE, but may have reduced the duration somewhat (last line of Table 22).

DTH response = assay: Delayed hypersensitivity responses to TCR peptides, ear swelling (Table 26); assay type: in vivo, Lewis rats
[7] = 100 μg peptide/CFA SC 30 days before GPBP/CFA

## APGGTLQQLFYSFNVGQSLF [TCR Vβ14 peptide, control peptide, residues 39-59 of rat TCR homologous to mouse Vβ14, reference compound]
EAE [1]; [7]
  EAE Day of Onset: 14 ± 2
  EAE Duration: 6 ± 2
  EAE Severity (mean of maximum severity, scale 0-4): 3.1 ± 0.3
EAE [1]; 100 μg peptide/CFA SC 30 days before challenge with 50 μg GPBP/CFA
  EAE Incidence: 4/4
EAE [1]
  protection from EAE: did not confer protection against EAE
EAE [1]; listed as Vβ14(39-59)
  protection from EAE: did not provide protection from EAE
LNC and T cell lines; Treated rats, line Vβ8/1st
  Proliferation: 8 ± 2 CPM/1000
LNC and T cell lines; Untreated rats (GPBP/CFA only), LNC
  Proliferation: 29 ± 4 CPM/1000
LNC and T cell lines; Untreated rats, line BP/1st
  Proliferation: 17 ± 2 CPM/1000
LNC and T cell lines; Untreated rats, line Vβ8/1st
  Proliferation: 11 ± 2 CPM/1000
LNC and T cell lines; Untreated rats, line Vβ14/1st
  Proliferation: 25 ± 6 CPM/1000
EAE [2]; Day 0
  Duration: 6.4 ± 0.3 days
  EAE/TOTAL: 6/6
  Max Clin. Signs: 3.3 ± 0.5
  Onset: 12
EAE [2]; Day -40
  Duration: 6.1 ± 0.6 days
  EAE/TOTAL: 8/8
  Max Clin. Signs: 3.2 ± 0.3
  Onset: 12
EAE [2]; Day onset
  Duration: 6.0 ± 1.5 days
  EAE/TOTAL: 4/4
  Max Clin. Signs: 3.0 ± 0.4
  Onset: 12
[3]
  Response of Lymph Node Cells: 18 ± 2
  Response of T Cell Line: 9 ± 1
EAE [4]
  Clinical Score: 2.9
TCR Vβ8(39-59) peptide
  absorbance of serum on TCR Vβ8(39-59) peptide (A405): 0.02±0.01 units
T cell immunity
  induction of T cell immunity: did induce immunity
[5]; 1st value column (head not given; LN cells of protected rats)
  T Cell Proliferation: 10 cpm × 10^-3
[5]; 2nd value column (head not given, TCR Vβ8(39-59)-selected line)
  T Cell Proliferation: 2 cpm × 10^-3
EAE [6]
  Day of Onset: 13.7 ± 0.5
  Disease Duration: 3.5 ± 0.5
  Disease Incidence: 6/6
  Disease Severity: 2.5 ± 0.8
DTH response; GP-BP/CFA immunized rats, ear test Day 12 (EAE onset)
  48 Hour DTH Response: 11 ± 4
DTH response; Normal or saline/CFA rats, ear test Day 12
  48 Hour DTH Response: 10 ± 4
DTH response; TCR Vβ8 peptide/CFA immunized rats, ear test Day 30
  48 Hour DTH Response: 9 ± 3
DTH response; TCR Vβ814 (so in the source) peptide/CFA immunized rats, ear test Day 30
  48 Hour DTH Response: 40 ± 4
